The structures appear in SMILES notation.

Broadly, the IC50 is the concentration that inhibits the measured activity by half.

One test has as its target JAK2 (Homo sapiens (Human), UniProt O60674). Kind of test: Jak Biochemical HTRF Assay (JAK2). Particulars: recombinant GST-tagged catalytic domain, [ATP] 8.5 μM.
For another test, the target named is JAK3 (Homo sapiens (Human), UniProt P52333). Kind of test: Jak Biochemical HTRF Assay (JAK3). Particulars: recombinant GST-tagged catalytic domain, [ATP] 2.9 μM. A general note: In TR-FRET formats the signal depends on donor and acceptor labels being close together.
Sequence of JAK3 (P52333 822-1111): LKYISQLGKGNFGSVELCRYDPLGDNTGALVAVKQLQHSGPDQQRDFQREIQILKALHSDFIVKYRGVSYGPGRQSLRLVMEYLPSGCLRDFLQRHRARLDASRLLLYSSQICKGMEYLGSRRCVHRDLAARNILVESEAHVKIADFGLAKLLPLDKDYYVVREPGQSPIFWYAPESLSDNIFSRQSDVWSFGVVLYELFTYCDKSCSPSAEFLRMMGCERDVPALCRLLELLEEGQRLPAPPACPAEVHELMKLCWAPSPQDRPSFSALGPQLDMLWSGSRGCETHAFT

Sequence of JAK2 (O60674 849-1124): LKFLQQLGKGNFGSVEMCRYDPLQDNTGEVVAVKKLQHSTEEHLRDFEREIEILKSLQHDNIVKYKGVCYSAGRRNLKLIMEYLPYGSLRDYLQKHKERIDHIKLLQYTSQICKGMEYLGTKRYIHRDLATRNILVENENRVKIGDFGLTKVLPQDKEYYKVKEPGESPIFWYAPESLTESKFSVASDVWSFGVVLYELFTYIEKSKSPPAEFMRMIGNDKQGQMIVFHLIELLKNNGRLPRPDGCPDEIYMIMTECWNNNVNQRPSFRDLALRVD

Take `CCOC(=O)c1c[nH]c2ncnc(-c3cccc(NC(=O)/C=C\c4ccccc4OC)c3)c12` [Example 5-23, ethyl 4-(3-{[(2Z)-3-(2-methoxyphenyl)prop-2-enoyl]amino}phenyl)-7H-pyrrolo[2,3-d]pyrimidine-5-carboxylate]: the IC50 was over 500 nM at JAK2 (given as range class) and 10 to 500 nM at JAK3 (given as range class).
On the same counts, the results for `CCOC(=O)c1c[nH]c2ncnc(-c3cccc(NC(=O)/C=C/c4cccc(OC)c4)c3)c12` [Example 5-24, ethyl 4-(3-{[(2E)-3-(3-methoxyphenyl)prop-2-enoyl]amino}phenyl)-7H-pyrrolo[2,3-d]pyrimidine-5-carboxylate] are over 500 nM and 10 to 500 nM.
In the case of `CC/C=C(\C)C(=O)Nc1cccc(-c2ncnc3[nH]cc(C(=O)OCC)c23)c1` [Example 5-25, ethyl 4-(3-{[(2E)-2-methylpent-2-enoyl]amino}phenyl)-7H-pyrrolo[2,3-d]pyrimidine-5-carboxylate], the IC50 at JAK2 (given as range class) was over 500 nM; at JAK3 (given as range class), 10 to 500 nM.
For `CCOC(=O)c1c[nH]c2ncnc(-c3cccc(NC(=O)/C(F)=C/c4ccccc4)c3)c12` [Example 5-26, ethyl 4-(3-{[(2Z)-2-fluoro-3-phenylprop-2-enoyl]amino}phenyl)-7H-pyrrolo[2,3-d]pyrimidine-5-carboxylate], the concentration for half-maximal inhibition (IC50) at JAK2 (given as range class) was over 500 nM; at JAK3 (given as range class) it was 10 to 500 nM.
For `CCOC(=O)c1c[nH]c2ncnc(-c3cccc(NC(=O)C=C(C)C)c3)c12` [Example 5-27, ethyl 4-{3-[(3-methylbut-2-enoyl)amino]phenyl}-7H-pyrrolo[2,3-d]pyrimidine-5-carboxylate], the IC50 at JAK2 (given as range class) is over 500 nM; at JAK3 (given as range class), 10 to 500 nM.
For `CCOC(=O)c1c[nH]c2ncnc(-c3cccc(NC(=O)/C=C/c4ccc(OC)cc4)c3)c12` [Example 5-29, ethyl 4-(3-{[(2E)-3-(4-methoxyphenyl)prop-2-enoyl]amino}phenyl)-7H-pyrrolo[2,3-d]pyrimidine-5-carboxylate], the results for the IC50 on JAK2 (given as range class) and at JAK3 (given as range class) were over 500 nM and 10 to 500 nM, respectively.
In the case of `CCOC(=O)c1c[nH]c2ncnc(-c3cccc(NC(=O)/C=C/c4cccnc4)c3)c12` [Example 5-30, ethyl 4-(3-{[(2E)-3-pyridin-3-ylprop-2-enoyl]amino}phenyl)-7H-pyrrolo[2,3-d]pyrimidine-5-carboxylate], the figures for the IC50 on JAK2 (given as range class) and at JAK3 (given as range class) were over 500 nM and 10 to 500 nM, respectively.
For the compound `C/C=C(\C)C(=O)Nc1cccc(-c2ncnc3[nH]cc(C(=O)OCC)c23)c1` [Example 5-31, ethyl 4-(3-{[(2E)-2-methylbut-2-enoyl]aminol}phenyl)-7H-pyrrolo[2,3-d]pyrimidine-5-carboxylate], the IC50 on JAK2 (given as range class) was over 500 nM; on JAK3 (given as range class), 10 to 500 nM.
For `CCOC(=O)c1c[nH]c2ncnc(-c3cccc(NC(=O)/C=C/c4ccco4)c3)c12` [Example 5-32, ethyl 4-(3-{[(2E)-3-furan-2-ylprop-2-enoyl]amino}phenyl)-7H-pyrrolo[2,3-d]pyrimidine-5-carboxylate], the IC50 is over 500 nM at JAK2 (given as range class) and 10 to 500 nM on JAK3 (given as range class).
For `CC/C=C/C(=O)Nc1cccc(-c2ncnc3[nH]cc(C(=O)OCC)c23)c1` [Example 5-33, ethyl 4-{3-[(2E)-pent-2-enoylamino]phenyl}-7H-pyrrolo[2,3-d]pyrimidine-5-carboxylate], in that order: over 500 nM and 10 to 500 nM.
`CCOC(=O)c1c[nH]c2ncnc(-c3cccc(NC(=O)/C=C(/C)C(F)(F)F)c3)c12` [Example 5-34, ethyl 4-(3-{[(2Z)-4,4,4-trifluoro-3-methylbut-2-enoyl]amino}phenyl)-7H-pyrrolo[2,3-d]pyrimidine-5-carboxylate]: the figures for the IC50 on JAK2 and on JAK3 were over 1500 nM and 1.9 nM, respectively.
Regarding `CCOC(=O)c1c[nH]c2ncnc(-c3cccc(NC(=O)C4=CCCCC4)c3)c12` [Example 5-35, ethyl 4-{3-[(cyclohex-1-en-1-ylcarbonyl)amino]phenyl}-7H-pyrrolo[2,3-d]pyrimidine-5-carboxylate], the IC50 on JAK2 (given as range class) was over 500 nM; on JAK3 (given as range class), 10 to 500 nM.
Regarding `CCOC(=O)c1c[nH]c2ncnc(-c3cccc(NC(=O)C4=CC(=O)CC4)c3)c12` [Example 5-36, ethyl 4-(3-{[(3-oxocyclopent-1-en-1-yl)carbonyl]amino}phenyl)-7H-pyrrolo[2,3-d]pyrimidine-5-carboxylate], the half-maximal inhibitory concentration (IC50) at JAK2 was over 1500 nM; at JAK3 it was 0.14 nM.
`CCOC(=O)c1c[nH]c2ncnc(-c3cccc(NC(=O)C=C4CCCC4)c3)c12` [Example 5-37, ethyl 4-{3-[(cyclopentylideneacetyl)amino]phenyl}-7H-pyrrolo[2,3-d]pyrimidine-5-carboxylate]: the values for the 50% inhibitory concentration (IC50) at JAK2 (given as range class) and on JAK3 (given as range class) were over 500 nM and 10 to 500 nM, respectively.
On the same counts, the results for `C/C=C(/OC)C(=O)Nc1cccc(-c2ncnc3[nH]cc(C(=O)OCC)c23)c1` [Example 5-38, ethyl 4-(3-{[(2E)-2-methoxybut-2-enoyl]amino}phenyl)-7H-pyrrolo[2,3-d]pyrimidine-5-carboxylate] are over 500 nM and 10 to 500 nM.
As to `CCOC(=O)c1c[nH]c2ncnc(-c3cccc(NC(=O)/C=C/c4nccs4)c3)c12` [Example 5-39, ethyl 4-(3-{[(2E)-3-(1,3-thiazol-2-yl)prop-2-enoyl]amino}phenyl)-7H-pyrrolo[2,3-d]pyrimidine-5-carboxylate], the figures for the IC50 at JAK2 and on JAK3 were 496 nM and 3.9 nM, respectively.
With `CCOC(=O)c1c[nH]c2ncnc(-c3cccc(NC(=O)C4=COCC4)c3)c12` [Example 5-40], the IC50 on JAK2 (given as range class) was over 500 nM; on JAK3 (given as range class), 10 to 500 nM.
On to `C=C(CN1CCOCC1)C(=O)Nc1cccc(-c2ncnc3[nH]cc(C(=O)OCC)c23)c1` [Example 5-41, ethyl 4-(3-{[2-(morpholin-4-ylmethyl)acryloyl]amino}phenyl)-7H-pyrrolo[2,3-d]pyrimidine-5-carboxylate], for which the results for the IC50 at JAK2 and on JAK3 were over 1500 nM and 0.66 nM, respectively.
Regarding `CCOC(=O)c1c[nH]c2ncnc(-c3cccc(NC(=O)/C=C/C(F)(F)F)c3)c12` [Example 5-42, ethyl 4-(3-{[(2E)-4,4,4-trifluorobut-2-enoyl]amino}phenyl)-7H-pyrrolo[2,3-d]pyrimidine-5-carboxylate], the values for the IC50 at JAK2 (given as range class) and at JAK3 (given as range class) were over 500 nM and 10 to 500 nM, respectively.
On to `CCOC(=O)c1c[nH]c2ncnc(-c3cccc(NC(=O)/C(C)=C/c4ccccc4)c3)c12` [Example 5-43, ethyl 4-(3-{[(2E)-2-methyl-3-phenylprop-2-enoyl]amino}phenyl)-7H-pyrrolo[2,3-d]pyrimidine-5-carboxylate], for which the IC50 is over 500 nM on JAK2 (given as range class) and 10 to 500 nM at JAK3 (given as range class).
As to `CCOC(=O)c1c[nH]c2ncnc(-c3cccc(NC(=O)/C=C/c4ccc(C(F)(F)F)cc4)c3)c12` [Example 5-44, ethyl 4-[3-({(2E)-3-[4-(trifluoromethyl)phenyl]prop-2-enoyl}amino)phenyl]-7H-pyrrolo[2,3-d]pyrimidine-5-carboxylate], the concentration for half-maximal inhibition (IC50) at JAK2 (given as range class) was over 500 nM; on JAK3 (given as range class), 10 to 500 nM.
With `C=C(COC)C(=O)Nc1cccc(-c2ncnc3[nH]cc(C(=O)OCC)c23)c1` [Example 5-45, ethyl 4-(3-{[2-(methoxymethyl)acryloyl]amino}phenyl)-7H-pyrrolo[2,3-d]pyrimidine-5-carboxylate], the IC50 was over 1500 nM at JAK2 and 0.025 nM at JAK3.

For the origin of these results see patent US8993756B2 (Merck Sharp & Dohme Corp., priority 2011, dated 2015).
